For 20 compounds, Ki results are on record in BindingDB's records for doi:10.1021/jm9802158 (Upjohn, 1998).

The structures appear in SMILES notation. Bounds are passed on as bounds.

For the first experiment, the target named is T1, Dimer of Gag-Pol polyprotein [489-587] (Human immunodeficiency virus 1, UniProt P12497).
T1 construct: 489-587
Description: Protease Inhibition Assay. The following applies: pH 5; 22 °C. The source says:
(§1) HIV-1 protease was purified and refolded from E. coli inclusion bodies. The substrate used spans the p17-p24 processing site (R-V-S-Q-N-Y-P-I-V-Q-N-K) and was derivatized with biotin and fluorescein isothiocyanate (FITC) at the amino and carboxy termini. In the presence of HIV-l protease, the substrate is rapidly cleaved into two parts. The biotinylated amino terminal fragment binds to the avidin beads while the FITC-containing carboxy1 terminal fragment is removed through the membrane. […] The bound fluorescence is obtained by processing on an IDEXX Screen Machine. Determination of Ki values with this assay requires analysis under conditions in which substrate concentration resides substantially below Km and the inhibitor concentrations greatly exceeds the Ki value and the enzyme concentration.
Compound `CCCC1(CCc2ccccc2)CC(=O)C(C(c2cccc(NS(=O)(=O)c3cn(C)cn3)c2)C2CC2)C(=O)O1` (stereo not given) [N-[3-[1-(5,6-Dihydro-4-hydroxy-2-oxo-6-phenethyl-6-propyl-2H-pyran-3-yl)cyclopropylmethyl]phenyl]-1-methyl-1H-imidazole-4-sulfonamide] had an inhibition constant Ki of 0.71 nM.

On to `CCCC1(CCc2ccccc2)CC(=O)C(C(CC)c2cccc(NS(=O)(=O)CCC)c2)C(=O)O1` (stereo not given) [N-(3-{1-[4-hydroxy-2-oxo-6-(2-phenylethyl)-6-propyl-5,6-dihydro-2H-pyran-3-yl]propyl}phenyl)propane-1-sulfonamide], for which the inhibitory constant (Ki) is above 1000 nM.

`CCCC1(CCc2ccc(F)cc2)CC(=O)C(C(CC)c2cccc(NS(=O)(=O)c3cn(C)cn3)c2)C(=O)O1` (stereo not given) [N-[3-{1-(5,6-Dihydro-4-hydroxy-2-oxo--6-(2-(4-fluorophenyl)ethyl)-6-propyl-2H-pyran-3-yl)propyl}phenyl]-1-methyl-1H-imidazole-4-sulfonamide] showed a Ki of 3 nM.

`CCCC1(CCC)CC(=O)C(C(CC)c2cccc(NS(=O)(=O)c3cn(C)cn3)c2)C(=O)O1` (stereo not given) [N-[3-[1-(5,6-Dihydro-4-hydroxy-2-oxo-6,6-dipropyl-2H-pyran-3-yl)propyl]phenyl]-1-methyl-1H-imidazolesulfonamide] came in with a Ki of 1.8 nM.

Take `CCC(c1cccc(NS(=O)(=O)c2cn(C)cn2)c1)C1C(=O)CC(CCc2ccccc2)(CCc2ccccc2)OC1=O` (stereo not given) [N-(3-{1-[4-hydroxy-2-oxo-6,6-bis(2-phenylethyl)-5,6-dihydro-2H-pyran-3-yl]propyl}phenyl)-1-methyl-1H-imidazole-4-sulfonamide]: the inhibitory constant (Ki) turned out to be 1 nM.

`CCCC1(CCc2ccccc2)CC(=O)C(C(c2cccc(NS(=O)(=O)c3ccc([N+](=O)[O-])cn3)c2)C(C)(C)C)C(=O)O1` (stereo not given) [N-(3-{1-[4-hydroxy-2-oxo-6-(2-phenylethyl)-6-propyl-5,6-dihydro-2H-pyran-3-yl]-2,2-dimethylpropyl}phenyl)-5-nitropyridine-2-sulfonamide] returned a Ki of 2.3 nM.

`CCC(c1cccc(NS(=O)(=O)c2cn(C)cn2)c1)C1C(=O)CC2(OC1=O)C1CC3CC(C1)CC2C3` (stereo not given) [N-[3-(1-{4'-hydroxy-3',6'-dihydrospiro[adamantane-2,2'-pyran]-6'-one}propyl)phenyl]-1-methyl-1H-imidazole-4-sulfonamide] registered a Ki of 23 nM.

As for `CCCC1(CCc2ccccc2)CC(=O)C(Cc2cccc(NS(=O)(=O)c3cn(C)cn3)c2)C(=O)O1` (stereo not given) [N-(3-[1-(5,6-Dihydro-4-hydroxy-2-oxo-6-phenethyl-6-propyl-2H-pyran-3-yl)methyl]phenyl)-1-methyl-1H-imidazole-4-sulfonamide], affinity was put at a Ki of 13 nM.

In turn, `CCCC1(CCc2ccccc2)CC(=O)C(C(CC)c2cccc(NS(=O)(=O)c3ccc(C#N)cc3)c2)C(=O)O1` (stereo not given) [4-cyano-N-(3-{1-[4-hydroxy-2-oxo-6-(2-phenylethyl)-6-propyl-5,6-dihydro-2H-pyran-3-yl]propyl}phenyl)benzene-1-sulfonamide] yielded a Ki of 8.2 nM.

`CCCC1(CCc2ccccc2)CC(=O)C(C(c2cccc(NS(=O)(=O)c3ccc(C(F)(F)F)cn3)c2)C(C)(C)C)C(=O)O1` (stereo not given) [N-(3-[1-(5,6-Dihydro-4-hydroxy-2-oxo-6-phenethyl-6-propyl-2H-pyran-3-yl)-2,2-dimethylpropyl]phenyl)-5-trifluoromethyl-2-pyridinesulfonamide] gave a Ki of 4.3 nM.

`CCC(c1cccc(NS(=O)(=O)c2cn(C)cn2)c1)C1C(=O)CC(COCCOCCOC)(COCCOCCOC)OC1=O` (stereo not given) [N-[3-{1-(5,6-Dihydro-4-hydroxy-2-oxo--6,6-bis((2-(2-methoxyethoxy)ethoxy)methyl)-2H-pyran-3-yl)propyl}phenyl]-1-methyl-1H-imidazole-4-sulfonamide] returned a Ki of 28 nM.

`CCC(c1cccc(NS(=O)(=O)c2cn(C)cn2)c1)C1C(=O)CC(CC(C)C)(CC(C)C)OC1=O` (stereo not given) [N-(3-{1-[4-hydroxy-6,6-bis(2-methylpropyl)-2-oxo-5,6-dihydro-2H-pyran-3-yl]propyl}phenyl)-1-methyl-1H-imidazole-4-sulfonamide] yielded a Ki of 3 nM. This Ki is about 9.3-fold lower than that of the compound before.

Compound `CCCC1(CCc2ccccc2)CC(=O)C(C(c2cccc(NS(=O)(=O)c3ccc(C#N)cc3)c2)C(C)(C)C)C(=O)O1` (stereo not given) [4-cyano-N-(3-{1-[4-hydroxy-2-oxo-6-(2-phenylethyl)-6-propyl-5,6-dihydro-2H-pyran-3-yl]-2,2-dimethylpropyl}phenyl)benzene-1-sulfonamide] displayed a Ki of 12 nM.

The compound `CCCC1(CCC)CC(=O)C(C(c2cccc(NS(=O)(=O)c3cn(C)cn3)c2)C(C)(C)C)C(=O)O1` (stereo not given) [N-[3-{1-(5,6-Dihydro-4-hydroxy-2-oxo-6,6-dipropyl-2H-pyran-3-yl)-2,2-dimethylpropyl)phenyl]-1-methyl-1H-imidazole-4-sulfonamide] gave a Ki of 0.87 nM.

The compound `CCCC1(CCC)CC(=O)C(C(c2cccc(NS(=O)(=O)c3cn(C)cn3)c2)C2CC2)C(=O)O1` (stereo not given) [N-[3-[1-(5,6-Dihydro-4-hydroxy-2-oxo-6,6-dipropyl-2H-pyran-3-yl)cyclopropylmethyl]phenyl]-1-methyl-1H-imidazolesulfonamide] yielded a Ki of 0.52 nM.

Consider `CCCC1(CCc2ccccc2)CC(=O)C(C(c2cccc(NS(=O)(=O)c3cn(C)cn3)c2)C(C)(C)C)C(=O)O1` (stereo not given) [N-[3-{1-(5,6-Dihydro-4-hydroxy-2-oxo-6-phenethyl-6-propyl-2H-pyran-3-yl)-2,2-dimethylpropyl)phenyl]-1-methyl-1H-imidazole-4-sulfonamide], for which the Ki is 1.2 nM. This Ki is about 2.3-fold higher than that of the compound before.

The compound `CCCC1(CCc2ccccc2)CC(=O)C(C(c2cccc(NS(=O)(=O)c3ccc(C#N)cn3)c2)C(C)(C)C)C(=O)O1` (stereo not given) [N-(3-[1-(5,6-Dihydro-4-hydroxy-2-oxo-6-phenethyl-6-propyl-2H-pyran-3-yl)-2,2-dimethylpropyl]phenyl)-5-cycano-2-pyridinesulfonamide] registered a Ki of 1.9 nM. Against the preceding compound, the Ki is about 1.6-fold higher.

For the compound `CCC(c1cccc(NS(=O)(=O)c2cn(C)cn2)c1)C1C(=O)CC(CCC2CC2)(CCC2CC2)OC1=O` (stereo not given) [N-(3-{1-[6,6-bis(2-cyclopropylethyl)-4-hydroxy-2-oxo-5,6-dihydro-2H-pyran-3-yl]propyl}phenyl)-1-methyl-1H-imidazole-4-sulfonamide], the affinity, expressed as Ki, was 1.7 nM.

Another experiment concerns the target T2, Dimer of Gag-Pol polyprotein [489-587] (Human immunodeficiency virus 1, UniProt P04585).
T2 construct: 489-587
Description: Protease Inhibition Assay. The following applies: pH 5; 22 °C.
Source text: as §1
For the compound `CCCC1(CCc2ccccc2)CC(=O)C(C(c2cccc(NS(=O)(=O)c3ccc(N)cn3)c2)C(C)(C)C)C(=O)O1` (stereo not given) [5-amino-N-(3-{1-[4-hydroxy-2-oxo-6-(2-phenylethyl)-6-propyl-5,6-dihydro-2H-pyran-3-yl]-2,2-dimethylpropyl}phenyl)pyridine-2-sulfonamide], the Ki amounted to 0.2 nM.

For `CCCC1(CCc2ccccc2)CC(=O)C(C(CC)c2cccc(NS(=O)(=O)c3ccc(C#N)cn3)c2)C(=O)O1` (stereo not given) [5-cyano-N-(3-{1-[4-hydroxy-2-oxo-6-(2-phenylethyl)-6-propyl-5,6-dihydro-2H-pyran-3-yl]propyl}phenyl)pyridine-2-sulfonamide], the inhibitory constant (Ki) was 0.1 nM.
